In article PMC5387716, “Discovery of monocarbonyl curcumin-BTP hybrids as STAT3 inhibitors for drug-sensitive and drug-resistant breast cancer therapy” (Scientific Reports, 2017) one finds melting point and IC50 data, which are given here for 19 compounds.

The term melting point denotes the temperature of the solid-liquid transition.

Series [1] has as its system MCF-7 cells. Nature of the series: MTT anti-proliferative assay, MCF-7. It is filed as cell-based, human. The following applies: read-out: MCF-7 IC50 ± SD. The method, then:
(§1) All cell lines were purchased from Cell Bank of Shanghai Institute of Biochemistry and Cell Biology, Chinese Academy of Sciences (Shanghai, China). Human breast carcinoma cells (MCF-7 and MCF-7/DOX), breast epithelial cells (MCF-10A) and normal human liver cells (LO2) were maintained in RPMI-1640 medium. All cells were supplemented with 12% fetal bovine serum containing 50 μg/ml penicillin and 50 μg/ml streptomycin. Cells were grown to 80% confluency in a tissue culture flask at 37 °C in a humidified atmosphere containing 5% CO2, and then were trypsinized with 1 × Trypsin-Versene and split. The MCF-7/DOX cell line we used was established from its parental cell line MCF-7 cell by gradually increasing the concentration of DOX to which the cells were exposed in a stepwise manner over a period of 8 months. […] The cells were incubated in drug-free medium for at least 1 week before use.
(§2) Cells (MCF-7, MCF-7/DOX, MCF-10A, LO2) were seeded in 96-well plates at a density of 3,000–6,000 cells per well. The cells were incubated overnight (16 h) in a humidified 5% CO2 incubator at 37 °C. After media removal, different concentrations of test compounds were added in triplicate to the plates in 200 μL of fresh media and were incubated with the cells at 37 °C for 48 h. […] Cell viability was evaluated using 3-(4, 5-dimethylthiazolyl)-2,5-diphenyltetrazoliumbromide (MTT). The absorbance was read by an ELISA reader (SpectraMax Plus384, Molecular Devices, Sunnyvale, CA) at a test wavelength of 570 nm and a reference wavelength of 630 nm. Cell viability was calculated using the following formula: […]
A general note: Formazan colour is commonly taken as a measure of viable cells.

Series [2] deals with MCF-7/DOX cells. The series is described as follows: MTT anti-proliferative assay, MCF-7/DOX. The format is cell-based, human. The following applies: MTT, 48 h, read-out: MCF-7/DOX IC50 ± SD. As for the experimental part:
as §1, §2

Where two headings read alike, the source gives them in different places.

In turn, `O=C(/C=C/c1ccc(Cl)cc1)N1CCN(C(=O)C2=Cc3ccc(Br)cc3S2(=O)=O)CC1` [Compound 6s, (E)-1-(4-(6-bromo-1,1-dioxidobenzo[b]thiophene-2-carbonyl)piperazin-1-yl)-3-(4-chlorophenyl)prop-2-en-1-one] returned a melting point of 225 to 227 °C. Moreover, the IC50 in series [1] (Homo sapiens, MCF7, 48 h) is 1600 ± 90 nM. For the same compound, the IC50 in series [2] (Homo sapiens, MCF7-DOX) is 2230 ± 160 nM.
Taken in the same sequence, the figures for `COc1ccc(/C=C/C(=O)N2CCN(C(=O)C3=Cc4ccc(Br)cc4S3(=O)=O)CC2)cc1` [Compound 6m, (E)-1-(4-(6-bromo-1,1-dioxidobenzo[b]thiophene-2-carbonyl)piperazin-1-yl)-3-(4-methoxyphenyl)prop-2-en-1-one] were 220 to 222 °C, 990 ± 70 nM and 380 ± 10 nM.
On to `COc1cc(/C=C/C(=O)N2CCN(C(=O)C3=Cc4cc(Br)ccc4S3(=O)=O)CC2)cc(OC)c1O` [Compound 6d, (E)-1-(4-(5-bromo-1,1-dioxidobenzo[b]thiophene-2-carbonyl)piperazin-1-yl)-3-(4-hydroxy-3,5-dimethoxyphenyl)prop-2-en-1-one], for which the melting point lay in the range of 125 to 127 °C. For the same compound, in series [1] (Homo sapiens, MCF7, 48 h), the IC50 was 2250 ± 350 nM. Also, in series [2] (Homo sapiens, MCF7-DOX), the IC50 was 2270 ± 600 nM.
Taken in the same sequence, the figures for `O=C(/C=C/c1ccc(Br)cc1)N1CCN(C(=O)C2=Cc3cc(Br)ccc3S2(=O)=O)CC1` [Compound 6g, (E)-1-(4-(5-bromo-1,1-dioxidobenzo[b]thiophene-2-carbonyl)piperazin-1-yl)-3-(4-bromophenyl)prop-2-en-1-one] were more than 250 °C, 2080 ± 60 nM and 1180 ± 70 nM.
For `COc1ccc(/C=C/C(=O)N2CCN(C(=O)C3=Cc4cc(Br)ccc4S3(=O)=O)CC2)cc1OC` [Compound 6a, (E)-1-(4-(5-bromo-1,1-dioxidobenzo[b]thiophene-2-carbonyl)piperazin-1-yl)-3-(3,4-dimethoxyphenyl)prop-2-en-1-one] the same measures were 244 to 246 °C, 710 ± 140 nM and 1820 ± 190 nM.
Turning to “(E)-1-(4-(6-bromo-1,1-dioxidobenzo[b]thiophene-2-carbonyl)piperazin-1-yl)-3-(3-hydroxy-4-methoxyphenyl)prop-2-en-1-one [Compound 6t]”, the IC50 in series [1] (48 h) was found to be 3030 ± 220 nM; in series [2], 2020 ± 340 nM.
For the compound `COc1cc(/C=C/C(=O)N2CCN(C(=O)C3=Cc4ccc(Br)cc4S3(=O)=O)CC2)cc(OC)c1OC` [Compound 6n, (E)-1-(4-(6-bromo-1,1-dioxidobenzo[b]thiophene-2-carbonyl)piperazin-1-yl)-3-(3,4,5-trimethoxyphenyl)prop-2-en-1-one], the melting point lay within 81 to 85 °C. The IC50 in series [1] (Homo sapiens, MCF7, 48 h) worked out at 2620 ± 130 nM. For the same compound, in series [2] (Homo sapiens, MCF7-DOX), the IC50 turned out to be 2880 ± 570 nM.
Taken in the same sequence, the figures for `COc1cc(/C=C/C(=O)N2CCN(C(=O)C3=Cc4ccc(Br)cc4S3(=O)=O)CC2)cc(OC)c1O` [Compound 6o, (E)-1-(4-(6-bromo-1,1-dioxidobenzo[b]thiophene-2-carbonyl)piperazin-1-yl)-3-(4-hydroxy-3,5-dimethoxyphenyl)prop-2-en-1-one] were 112 to 114 °C, 2900 ± 360 nM and 9490 ± 2800 nM.
As for “(E)-1-(4-(6-bromo-1,1-dioxidobenzo[b]thiophene-2-carbonyl)piperazin-1-yl)-3-(4-hydroxy-3-methoxyphenyl)prop-2-en-1-one [Compound 6u]”, the IC50 in series [1] (48 h) amounted to 1440 ± 110 nM; in series [2], 550 ± 10 nM.
For the compound `COc1ccc(/C=C/C(=O)N2CCN(C(=O)C3=Cc4ccc(Br)cc4S3(=O)=O)CC2)cc1OC` [Compound 6l, (E)-1-(4-(6-bromo-1,1-dioxidobenzo[b]thiophene-2-carbonyl)piperazin-1-yl)-3-(3,4-dimethoxyphenyl)prop-2-en-1-one], the melting point is 222 to 224 °C. Further, the IC50 in series [1] (Homo sapiens, MCF7, 48 h) worked out at 1250 ± 140 nM. In addition, the IC50 in series [2] (Homo sapiens, MCF7-DOX) is 1770 ± 120 nM.
For `O=C(/C=C/c1ccc(Cl)cc1)N1CCN(C(=O)C2=Cc3cc(Br)ccc3S2(=O)=O)CC1` [Compound 6h, (E)-1-(4-(5-bromo-1,1-dioxidobenzo[b]thiophene-2-carbonyl)piperazin-1-yl)-3-(4-chlorophenyl)prop-2-en-1-one] the same measures were 225 to 227 °C, 2020 ± 200 nM and 720 ± 130 nM.
Taken in the same sequence, the figures for `O=C(/C=C/c1ccccc1O)N1CCN(C(=O)C2=Cc3ccc(Br)cc3S2(=O)=O)CC1` [Compound 6p, (E)-1-(4-(6-bromo-1,1-dioxidobenzo[b]thiophene-2-carbonyl)piperazin-1-yl)-3-(2-hydroxy)prop-2-en-1-one] were more than 250 °C, 4000 ± 910 nM and 3780 ± 140 nM.
In the case of “(E)-1-(4-(5-bromo-1,1-dioxidobenzo[b]thiophene-2-carbonyl)piperazin-1-yl)-3-(4-fluorophenyl)prop-2-en-1-one [Compound 6v]”, the results for the IC50 in series [1] (48 h) and in series [2] were 1450 ± 170 nM and 2140 ± 270 nM, respectively.
For “(E)-1-(4-(5-bromo-1,1-dioxidobenzo[b]thiophene-2-carbonyl)piperazin-1-yl)-3-(4-hydroxy-3-methoxyphenyl)prop-2-en-1-one [Compound 6j]” the same measures were 860 ± 90 nM and 1000 ± 760 nM.
Consider `O=C(/C=C/c1ccccn1)N1CCN(C(=O)C2=Cc3ccc(Br)cc3S2(=O)=O)CC1` [Compound 6q, (E)-1-(4-(6-bromo-1,1-dioxidobenzo[b]thiophene-2-carbonyl)piperazin-1-yl)-3-(pyridin-2-yl)prop-2-en-1-one], for which the melting point lay within 97 to 99 °C. In series [1] (Homo sapiens, MCF7, 48 h), the IC50 turned out to be 1480 ± 190 nM. For the same compound, the IC50 in series [2] (Homo sapiens, MCF7-DOX) is 4420 ± 170 nM.
Taken in the same sequence, the figures for `O=C(/C=C/c1ccc([N+](=O)[O-])cc1)N1CCN(C(=O)C2=Cc3cc(Br)ccc3S2(=O)=O)CC1` [Compound 6e, (E)-1-(4-(5-bromo-1,1-dioxidobenzo[b]thiophene-2-carbonyl)piperazin-1-yl)-3-(4-nitrophenyl)prop-2-en-1-one] were more than 250 °C, 1180 ± 80 nM and 1080 ± 140 nM.
For `O=C(/C=C/c1ccc(F)cc1)N1CCN(C(=O)C2=Cc3cc(Br)ccc3S2(=O)=O)CC1` [Compound 6k, (E)-1-(4-(5-bromo-1,1-dioxidobenzo[b]thiophene-2-carbonyl)piperazin-1-yl)-3-(4-fluorophenyl)prop-2-en-1-one] the same measures were more than 250 °C, 1500 ± 180 nM and 2440 ± 570 nM.
For `O=C(/C=C/c1ccc(Br)cc1)N1CCN(C(=O)C2=Cc3ccc(Br)cc3S2(=O)=O)CC1` [Compound 6r, (E)-1-(4-(6-bromo-1,1-dioxidobenzo[b]thiophene-2-carbonyl)piperazin-1-yl)-3-(4-bromophenyl)prop-2-en-1-one] the same measures were 215 to 217 °C, 1600 ± 130 nM and 2610 ± 820 nM.
`COc1cc(/C=C/C(=O)N2CCN(C(=O)C3=Cc4cc(Br)ccc4S3(=O)=O)CC2)cc(OC)c1OC` [Compound 6c, (E)-1-(4-(5-bromo-1,1-dioxidobenzo[b]thiophene-2-carbonyl)piperazin-1-yl)-3-(3,4,5-trimethoxyphenyl)prop-2-en-1-one] gave a melting point of 94 to 96 °C. Further, the IC50 in series [1] (Homo sapiens, MCF7, 48 h) is 1230 ± 80 nM. In addition, the IC50 in series [2] (Homo sapiens, MCF7-DOX) is 860 ± 130 nM.
